{"source": "ChEMBL document CHEMBL5465560", "about": "“Selectivity Literature for EUbOPEN Chemogenomic Library” (2024)", "key": {"[1]": {"target": "T1, Mitogen-activated protein kinase kinase kinase 15 (Homo sapiens) (UniProt Q6ZN16)", "T1 sequence (whole entry)": "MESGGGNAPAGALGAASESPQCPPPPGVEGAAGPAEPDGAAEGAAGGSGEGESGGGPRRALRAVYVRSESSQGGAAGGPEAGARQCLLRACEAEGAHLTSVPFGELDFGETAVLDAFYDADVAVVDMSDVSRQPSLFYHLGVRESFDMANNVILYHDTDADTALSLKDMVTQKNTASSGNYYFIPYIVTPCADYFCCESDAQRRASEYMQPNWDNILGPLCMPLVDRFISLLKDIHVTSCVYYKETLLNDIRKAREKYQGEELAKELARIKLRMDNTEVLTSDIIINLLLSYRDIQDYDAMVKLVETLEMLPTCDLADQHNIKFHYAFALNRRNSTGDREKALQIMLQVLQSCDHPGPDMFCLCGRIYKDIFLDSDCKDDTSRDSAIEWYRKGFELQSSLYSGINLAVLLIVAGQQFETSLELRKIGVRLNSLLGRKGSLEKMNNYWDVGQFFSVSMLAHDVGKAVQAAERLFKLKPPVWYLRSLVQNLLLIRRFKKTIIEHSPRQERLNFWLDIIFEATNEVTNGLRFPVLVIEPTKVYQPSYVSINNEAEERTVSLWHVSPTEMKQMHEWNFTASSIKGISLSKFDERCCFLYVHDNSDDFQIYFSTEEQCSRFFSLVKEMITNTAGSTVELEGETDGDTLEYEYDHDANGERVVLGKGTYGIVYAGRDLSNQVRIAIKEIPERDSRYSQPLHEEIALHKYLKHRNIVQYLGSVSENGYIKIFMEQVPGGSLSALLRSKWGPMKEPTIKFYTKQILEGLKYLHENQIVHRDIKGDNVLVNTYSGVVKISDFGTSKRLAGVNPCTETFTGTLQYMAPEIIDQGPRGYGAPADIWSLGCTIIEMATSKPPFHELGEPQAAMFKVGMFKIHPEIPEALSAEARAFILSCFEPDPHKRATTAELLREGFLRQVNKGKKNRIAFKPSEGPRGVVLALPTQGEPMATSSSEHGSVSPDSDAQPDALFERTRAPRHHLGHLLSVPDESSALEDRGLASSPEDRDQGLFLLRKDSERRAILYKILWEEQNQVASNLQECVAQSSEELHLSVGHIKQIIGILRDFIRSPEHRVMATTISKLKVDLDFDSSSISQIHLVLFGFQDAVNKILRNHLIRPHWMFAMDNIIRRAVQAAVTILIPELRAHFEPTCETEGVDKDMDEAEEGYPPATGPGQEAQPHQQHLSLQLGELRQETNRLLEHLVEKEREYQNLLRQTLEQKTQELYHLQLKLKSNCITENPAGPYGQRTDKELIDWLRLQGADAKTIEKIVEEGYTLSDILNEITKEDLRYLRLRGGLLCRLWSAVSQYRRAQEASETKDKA", "experiment": "Selectivity interaction (KinomeScan (DiscoverX)) EUB0001049a MAP3K15", "details": "at 1 µM"}, "[2]": {"target": "Serine/threonine-protein kinase PAK 2 (Homo sapiens) (UniProt Q13177)", "experiment": "Selectivity interaction (KinomeScan (DiscoverX)) EUB0001079a PAK2", "details": "at 1 µM"}, "[3]": {"target": "Mitogen-activated protein kinase 10 (Homo sapiens, UniProt P53779)", "experiment": "Selectivity interaction (Kinase panel (DSF assay)) EUB0001558a MAPK10"}, "[4]": {"target": "Serine/threonine-protein kinase tousled-like 2 (Homo sapiens) (UniProt Q86UE8)", "sequence (Q86UE8 whole entry, looked up)": "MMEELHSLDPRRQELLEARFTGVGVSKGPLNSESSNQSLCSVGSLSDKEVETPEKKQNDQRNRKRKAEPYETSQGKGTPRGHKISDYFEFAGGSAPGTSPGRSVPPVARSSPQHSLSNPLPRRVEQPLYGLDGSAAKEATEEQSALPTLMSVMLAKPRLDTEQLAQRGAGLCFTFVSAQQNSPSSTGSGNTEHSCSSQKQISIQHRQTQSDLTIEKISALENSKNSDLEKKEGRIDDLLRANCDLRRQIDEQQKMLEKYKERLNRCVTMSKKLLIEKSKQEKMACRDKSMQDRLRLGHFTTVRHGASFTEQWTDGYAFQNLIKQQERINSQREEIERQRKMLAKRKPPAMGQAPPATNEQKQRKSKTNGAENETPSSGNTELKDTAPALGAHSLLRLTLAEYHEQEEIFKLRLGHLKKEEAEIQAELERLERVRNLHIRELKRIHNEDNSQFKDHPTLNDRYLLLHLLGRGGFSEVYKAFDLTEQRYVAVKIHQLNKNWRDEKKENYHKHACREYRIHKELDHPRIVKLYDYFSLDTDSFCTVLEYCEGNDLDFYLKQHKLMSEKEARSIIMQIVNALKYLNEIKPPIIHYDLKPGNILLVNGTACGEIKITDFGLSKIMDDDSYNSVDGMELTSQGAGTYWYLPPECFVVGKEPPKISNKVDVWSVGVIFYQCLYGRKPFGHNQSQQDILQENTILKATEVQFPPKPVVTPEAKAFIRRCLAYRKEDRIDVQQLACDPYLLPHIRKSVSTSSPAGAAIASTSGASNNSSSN", "experiment": "Selectivity interaction (Kinase panel (KiNativ target engagement assay in Jurkat cells)) EUB0001635a TLK2", "type": "cell-based", "details": "at 1 µM"}, "[5]": {"target": "Calcium/calmodulin-dependent protein kinase type II subunit gamma (Homo sapiens) (UniProt Q13555)", "sequence (Q13555 whole entry)": "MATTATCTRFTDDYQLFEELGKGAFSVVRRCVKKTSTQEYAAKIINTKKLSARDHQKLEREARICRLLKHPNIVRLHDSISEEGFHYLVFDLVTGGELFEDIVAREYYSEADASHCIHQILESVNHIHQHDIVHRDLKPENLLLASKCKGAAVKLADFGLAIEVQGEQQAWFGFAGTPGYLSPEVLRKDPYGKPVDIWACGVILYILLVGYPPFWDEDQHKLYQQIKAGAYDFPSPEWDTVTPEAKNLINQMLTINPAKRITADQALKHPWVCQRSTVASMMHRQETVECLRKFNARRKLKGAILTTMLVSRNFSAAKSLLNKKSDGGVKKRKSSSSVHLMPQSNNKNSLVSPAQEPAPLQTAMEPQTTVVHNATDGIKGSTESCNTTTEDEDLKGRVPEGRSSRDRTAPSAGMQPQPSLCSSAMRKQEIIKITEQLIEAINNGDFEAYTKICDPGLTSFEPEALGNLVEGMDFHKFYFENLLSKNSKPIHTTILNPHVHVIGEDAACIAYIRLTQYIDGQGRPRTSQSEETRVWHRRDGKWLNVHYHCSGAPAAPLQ", "details": "at 10 µM"}, "[6]": {"target": "TRAF2 and NCK-interacting protein kinase (Homo sapiens) (UniProt Q9UKE5)", "sequence (Q9UKE5 whole entry, looked up)": "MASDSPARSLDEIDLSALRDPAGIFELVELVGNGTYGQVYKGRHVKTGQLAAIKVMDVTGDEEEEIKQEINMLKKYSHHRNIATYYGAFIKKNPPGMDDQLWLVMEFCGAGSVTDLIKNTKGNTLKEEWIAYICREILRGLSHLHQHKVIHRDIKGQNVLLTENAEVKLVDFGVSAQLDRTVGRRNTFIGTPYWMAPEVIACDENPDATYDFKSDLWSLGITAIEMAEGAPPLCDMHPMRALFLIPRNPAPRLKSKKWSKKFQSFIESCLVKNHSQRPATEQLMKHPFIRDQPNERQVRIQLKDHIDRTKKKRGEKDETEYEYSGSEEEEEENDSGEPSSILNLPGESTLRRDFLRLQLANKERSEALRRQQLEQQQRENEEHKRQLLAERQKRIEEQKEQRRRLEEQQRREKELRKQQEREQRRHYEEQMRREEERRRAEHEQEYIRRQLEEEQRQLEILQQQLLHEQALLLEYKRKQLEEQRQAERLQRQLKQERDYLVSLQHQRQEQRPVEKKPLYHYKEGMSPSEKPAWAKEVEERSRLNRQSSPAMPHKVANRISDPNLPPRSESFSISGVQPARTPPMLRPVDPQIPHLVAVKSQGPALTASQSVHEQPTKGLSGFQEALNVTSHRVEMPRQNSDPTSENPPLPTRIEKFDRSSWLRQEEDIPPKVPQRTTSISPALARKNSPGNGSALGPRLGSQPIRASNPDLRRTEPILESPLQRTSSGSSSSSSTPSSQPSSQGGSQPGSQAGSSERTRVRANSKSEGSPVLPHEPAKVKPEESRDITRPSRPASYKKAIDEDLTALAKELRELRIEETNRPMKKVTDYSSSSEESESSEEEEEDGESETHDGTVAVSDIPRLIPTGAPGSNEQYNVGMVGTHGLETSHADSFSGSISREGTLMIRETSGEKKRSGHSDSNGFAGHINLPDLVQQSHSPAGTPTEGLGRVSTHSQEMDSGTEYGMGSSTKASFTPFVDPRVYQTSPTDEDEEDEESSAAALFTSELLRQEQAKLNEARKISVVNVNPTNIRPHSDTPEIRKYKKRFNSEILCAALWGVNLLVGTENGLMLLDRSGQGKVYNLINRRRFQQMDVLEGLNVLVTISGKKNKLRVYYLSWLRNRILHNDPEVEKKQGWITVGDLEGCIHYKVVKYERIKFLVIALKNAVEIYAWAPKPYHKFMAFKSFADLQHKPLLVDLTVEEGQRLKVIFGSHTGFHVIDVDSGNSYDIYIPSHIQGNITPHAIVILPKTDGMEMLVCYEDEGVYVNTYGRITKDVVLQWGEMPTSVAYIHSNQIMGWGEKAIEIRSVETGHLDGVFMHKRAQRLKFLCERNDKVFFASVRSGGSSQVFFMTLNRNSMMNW", "details": "at 10 µM"}, "[7]": {"target": "Proto-oncogene tyrosine-protein kinase Src (Homo sapiens, UniProt P12931)", "sequence (P12931 2-536 limits assumed)": "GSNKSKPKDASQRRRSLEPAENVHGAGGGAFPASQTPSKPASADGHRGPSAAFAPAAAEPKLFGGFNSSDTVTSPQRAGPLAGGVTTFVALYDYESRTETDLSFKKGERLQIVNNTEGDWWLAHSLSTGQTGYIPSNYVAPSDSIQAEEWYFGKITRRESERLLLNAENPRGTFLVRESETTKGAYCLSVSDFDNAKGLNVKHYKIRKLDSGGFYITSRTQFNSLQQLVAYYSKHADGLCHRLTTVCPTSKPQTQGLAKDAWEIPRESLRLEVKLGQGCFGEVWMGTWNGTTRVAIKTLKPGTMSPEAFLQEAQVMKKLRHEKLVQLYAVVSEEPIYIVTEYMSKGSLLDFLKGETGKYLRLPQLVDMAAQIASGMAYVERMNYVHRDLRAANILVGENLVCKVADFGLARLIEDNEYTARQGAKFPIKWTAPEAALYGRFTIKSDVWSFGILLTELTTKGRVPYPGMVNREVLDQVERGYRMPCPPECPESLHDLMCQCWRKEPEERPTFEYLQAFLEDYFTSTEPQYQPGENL", "experiment": "Selectivity interaction (Kinase panel (DSF assay)) EUB0001559a SRC"}, "[8]": {"target": "T2, Mitogen-activated protein kinase kinase kinase 2 (Homo sapiens) (UniProt Q9Y2U5)", "T2 sequence (whole entry)": "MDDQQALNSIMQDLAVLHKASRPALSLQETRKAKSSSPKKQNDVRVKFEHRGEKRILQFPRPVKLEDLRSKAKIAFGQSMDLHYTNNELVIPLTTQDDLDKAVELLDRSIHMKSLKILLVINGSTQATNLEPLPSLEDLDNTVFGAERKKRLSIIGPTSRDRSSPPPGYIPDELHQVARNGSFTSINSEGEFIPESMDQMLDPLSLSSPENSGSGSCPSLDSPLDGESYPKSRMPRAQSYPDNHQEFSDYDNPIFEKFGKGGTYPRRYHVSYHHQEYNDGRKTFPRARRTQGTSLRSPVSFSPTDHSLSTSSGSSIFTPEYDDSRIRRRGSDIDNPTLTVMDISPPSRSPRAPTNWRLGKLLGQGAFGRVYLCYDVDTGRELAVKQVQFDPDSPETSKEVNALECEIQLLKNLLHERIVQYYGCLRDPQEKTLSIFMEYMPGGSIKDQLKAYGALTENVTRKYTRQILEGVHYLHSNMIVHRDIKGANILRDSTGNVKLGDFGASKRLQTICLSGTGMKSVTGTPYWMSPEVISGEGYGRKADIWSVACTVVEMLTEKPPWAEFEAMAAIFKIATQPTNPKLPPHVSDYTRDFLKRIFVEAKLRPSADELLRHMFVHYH", "experiment": "Selectivity interaction (ActivX KiNativ screen (kinase selectivity in THP-1 cell lysates)) EUB0000639a MAP3K2", "type": "subcellular", "details": "lysate, at 5 µM"}, "[9]": {"target": "Serine/threonine-protein kinase B-raf (Homo sapiens) (UniProt P15056)", "sequence (P15056 whole entry)": "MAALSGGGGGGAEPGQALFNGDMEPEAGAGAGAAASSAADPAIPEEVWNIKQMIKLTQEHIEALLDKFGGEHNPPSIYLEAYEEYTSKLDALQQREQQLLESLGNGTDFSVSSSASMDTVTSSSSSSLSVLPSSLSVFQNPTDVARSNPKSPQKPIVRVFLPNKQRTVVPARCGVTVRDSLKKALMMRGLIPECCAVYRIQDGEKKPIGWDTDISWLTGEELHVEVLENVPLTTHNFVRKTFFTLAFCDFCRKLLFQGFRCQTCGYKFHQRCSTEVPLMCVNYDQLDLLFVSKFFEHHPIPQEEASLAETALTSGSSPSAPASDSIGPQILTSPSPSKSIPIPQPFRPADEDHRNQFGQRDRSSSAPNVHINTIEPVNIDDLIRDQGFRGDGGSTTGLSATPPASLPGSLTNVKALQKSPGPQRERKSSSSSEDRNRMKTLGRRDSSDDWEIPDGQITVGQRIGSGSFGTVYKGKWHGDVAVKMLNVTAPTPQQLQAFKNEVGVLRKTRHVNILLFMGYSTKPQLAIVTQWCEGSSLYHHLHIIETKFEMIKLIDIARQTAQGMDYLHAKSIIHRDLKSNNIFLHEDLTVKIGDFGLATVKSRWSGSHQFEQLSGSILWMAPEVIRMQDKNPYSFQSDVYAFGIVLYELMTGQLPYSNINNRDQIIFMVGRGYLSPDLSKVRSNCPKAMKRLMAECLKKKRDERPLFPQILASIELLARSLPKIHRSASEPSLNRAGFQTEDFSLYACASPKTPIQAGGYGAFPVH", "experiment": "Selectivity interaction (Kinase panel (Invitrogen)) EUB0000639a BRAF", "details": "at 200 nM"}, "[10]": {"target": "Protein arginine N-methyltransferase 7 (Homo sapiens, UniProt Q9NVM4)", "experiment": "Selectivity interaction (Scintillation proximity assays) EUB0000255b PRMT7"}, "[11]": {"target": "Serine/threonine-protein kinase 32A (Homo sapiens) (UniProt Q8WU08)", "sequence (Q8WU08 whole entry)": "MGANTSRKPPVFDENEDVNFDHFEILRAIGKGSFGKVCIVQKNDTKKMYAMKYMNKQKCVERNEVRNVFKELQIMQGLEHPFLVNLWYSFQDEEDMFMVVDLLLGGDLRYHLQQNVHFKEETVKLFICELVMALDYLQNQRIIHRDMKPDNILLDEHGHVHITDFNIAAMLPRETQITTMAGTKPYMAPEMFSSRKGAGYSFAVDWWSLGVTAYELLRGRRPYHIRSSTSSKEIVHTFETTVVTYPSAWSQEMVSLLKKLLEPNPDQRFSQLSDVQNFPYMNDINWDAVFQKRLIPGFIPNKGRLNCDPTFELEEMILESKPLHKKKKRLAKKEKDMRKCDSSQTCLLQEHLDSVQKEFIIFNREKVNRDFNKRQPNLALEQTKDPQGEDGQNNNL", "experiment": "Selectivity interaction (KinomeScan (DiscoverX)) EUB0000618a STK32A", "details": "at 10 µM"}, "[12]": {"target": "Tyrosine-protein kinase SYK (Homo sapiens, UniProt P43405)", "experiment": "Selectivity interaction (ActivX KiNativ screen (ex vivo kinase selectivity in human PBMCs)) EUB0001619a SYK", "type": "cell-based", "details": "PBMC, at 1 µM"}, "[13]": {"target": "Dual specificity protein kinase CLK3 (Homo sapiens, UniProt P49761)", "experiment": "Selectivity interaction (KinomeScan (DiscoverX)) EUB0001619a CLK3", "details": "at 1 µM"}, "[14]": {"target": "LIM domain kinase 2 (Homo sapiens) (UniProt P53671)", "sequence (P53671 whole entry, looked up, the tested form may be a part)": "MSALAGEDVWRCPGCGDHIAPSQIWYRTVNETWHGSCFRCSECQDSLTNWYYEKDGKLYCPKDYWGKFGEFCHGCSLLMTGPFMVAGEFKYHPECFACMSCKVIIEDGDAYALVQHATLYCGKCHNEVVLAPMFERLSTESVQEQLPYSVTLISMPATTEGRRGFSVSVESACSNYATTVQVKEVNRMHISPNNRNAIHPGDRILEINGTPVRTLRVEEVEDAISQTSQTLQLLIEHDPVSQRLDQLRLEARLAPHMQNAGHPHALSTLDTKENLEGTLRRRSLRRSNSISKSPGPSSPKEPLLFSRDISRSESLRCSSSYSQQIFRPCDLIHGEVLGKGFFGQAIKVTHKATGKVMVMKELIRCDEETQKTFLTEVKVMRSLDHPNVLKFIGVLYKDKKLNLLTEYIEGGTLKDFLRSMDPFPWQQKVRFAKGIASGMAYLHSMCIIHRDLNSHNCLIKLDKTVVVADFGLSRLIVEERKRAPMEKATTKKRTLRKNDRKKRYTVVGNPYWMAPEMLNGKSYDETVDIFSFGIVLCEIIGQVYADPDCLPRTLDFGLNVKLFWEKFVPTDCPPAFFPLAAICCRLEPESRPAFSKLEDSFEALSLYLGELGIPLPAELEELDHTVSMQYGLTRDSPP", "experiment": "Selectivity interaction (KinomeScan (DiscoverX)) EUB0000607a LIMK2", "details": "at 10 µM"}}}
{"smiles": "COc1cc(Nc2nc(C)cc(-c3cnn4nc(OC)ccc34)n2)cc(C(F)(F)F)c1", "values": [{"measurement": "% of control", "setting": "[1]", "value": 100, "unit": "%"}]}
{"smiles": "Nc1cnc(N2CCc3cc(S(=O)(=O)Nc4c(F)cc(Cl)cc4F)cc(N4CCCC4=O)c32)nc1", "note": "[TP-020n]", "values": [{"measurement": "% of control", "setting": "[2]", "value": 78, "unit": "%"}]}
{"smiles": "CC(C)(O)[C@H](F)CN1Cc2cc(NC(=O)c3cnn4cccnc34)c(N3CCOCC3)cc2C1=O", "values": [{"measurement": "dTM", "setting": "[3]", "value": 1.5, "unit": "K"}]}
{"smiles": "C=CC(=O)Nc1ccc(C(=O)Nc2[nH]nc3c2CN(C(=O)N[C@H](CN(C)C)c2ccccc2)C3(C)C)cc1", "values": [{"measurement": "% of engagement", "setting": "[4]; Selectivity number of off-targets 0.0, Selectivity number of targets 233.0, Source Knowledge https://www.sciencedirect.com/science/article/pii/S2451945619300674?via%3Dihub", "value": 6.8, "unit": "%"}, {"measurement": "% of engagement", "setting": "[4]", "value": 13.7, "unit": "%"}]}
{"smiles": "CCN(CC)CCCCNc1ncc2cc(-c3cc(OC)cc(OC)c3)c(NC(=O)NC(C)(C)C)nc2n1", "values": [{"measurement": "% of control", "setting": "[5]", "value": 100, "unit": "%"}, {"measurement": "% of control", "setting": "[6]", "value": 100, "unit": "%"}]}
{"smiles": "CN(C(=O)c1cnn2cccnc12)c1cc2c(cc1N1CCOCC1)C(=O)N(C[C@@H](F)C(C)(C)O)C2", "values": [{"measurement": "dTM", "setting": "[7]", "value": -0.3, "unit": "K"}]}
{"smiles": "CC[C@@H]1[C@H](F)C(=O)N[C@@H]1COc1nccc2cc(C(N)=O)c(OC)cc12", "note": "[ZIMLOVISERTIB]", "values": [{"measurement": "% of inhibition", "setting": "[8]", "value": 12.6, "unit": "%"}, {"measurement": "% of inhibition", "setting": "[9]", "value": 28.7, "unit": "%"}]}
{"smiles": "COCCN1CCC(c2cc(CN(C)C(=O)c3cccc(Oc4ccccc4)c3)ccn2)CC1", "values": [{"measurement": "IC50", "setting": "[10]", "value": "> 10", "unit": "µM"}]}
{"smiles": "O[C@H]1CC[C@H](Nc2ncc3nc(Nc4c(F)cc(F)cc4F)n([C@H]4CCOC4)c3n2)CC1", "values": [{"measurement": "% of control", "setting": "[11]", "value": 62, "unit": "%"}]}
{"smiles": "N#Cc1cccc(-c2c[nH]c3ncnc(N4CCOCC4)c23)c1", "values": [{"measurement": "% of inhibition", "setting": "[12]", "value": 6, "unit": "%"}, {"measurement": "% of control", "setting": "[13]", "value": 78, "unit": "%"}]}
{"smiles": "CNC(=O)Nc1ccc(-c2nc(N3CC4CCC(C3)O4)c3cnn(C4CCC5(CC4)OCCO5)c3n2)cc1", "values": [{"measurement": "% of control", "setting": "[14]", "value": 88, "unit": "%"}]}
